Tests used:
[1] = test system: Sox17 expression in human embryonic stem cell line H9; experiment: Dose titration secondary assay: Sox17 intensity, H9; assay type: cell-based
Procedure: (§1) It was important to confirm the activity of hits identified from primary screening and further analyze the range of activity by dose titration. New samples of a selective subset of primary screening hits were obtained as dry powders, solubilized to make fresh stock reagents, and diluted into secondary confirmation assays to evaluate effects on human embryonic stem cells.
(§2) Culture of two human embryonic stem cells (H1 and H9) was conducted as described in Example 1. Colonies of cells were maintained in an undifferentiated, pluripotent state on Matrigel™ ([…]) coated polystyrene plastic, using a 1:30 dilution of Matrigel™ in DMEM:F12 to coat the surface. Cells were split by enzymatic passage every four days on average. Passage was performed by exposing cell monolayers to a solution of collagenase (1 mg/ml; Sigma-Aldrich) for 10 to 60 minutes at 37° C. followed by gentle scraping with a pipette tip to recover cell clusters. Clusters were allowed to sediment by gravity, then washed to remove residual collagenase. Cell clusters were split at a 1:3 ratio for maintenance culture or a 1:1 ratio for subsequent assay. The human embryonic stem cell lines were maintained at less than passage 50 and routinely evaluated for normal karyotypic phenotype and absence of mycoplasma contamination.
(§3) Cell clusters of the H1 or H9 human embryonic stem cell lines used in the assay were evenly resuspended in culture medium and plated onto Matrigel™-coated 96-well Packard VIEWPLATES (PerkinElmer) in volumes of 100 μl/well. MEF conditioned medium supplemented with 8 ng/ml bFGF was used for initial plating and expansion. Daily feeding was conducted by aspirating spent culture medium from each well and replacing with an equal volume of fresh medium. Cultures were allowed to expand one to three days after plating prior to initiating assay. Plates were maintained at 37° C., 5% CO2 in a humidified box for the duration of assay.
(§4) A subset of hits resulting from primary screening was used for follow-up study and subsequent secondary assays. Twenty compounds available as dry powders were solubilized as 10 mM stocks in DMSO and stored dessicated at […] until use Immediately prior to assay, compound stocks were diluted 1:1000 to make 10 μM test compound in DMEM:F12 base medium (Invitrogen) supplemented with 0.5% FCS (HyClone) and 100 ng/ml Activin A (R&D Biosystems). This was further diluted two-fold in series to make a seven point dilution curve for each compound, also in DMEM:F12 base medium with 0.5% FCS and 100 ng/ml Activin A.
(§5) Assay was initiated by aspirating culture medium from cell monolayers in each well followed by three washes in PBS to remove residual growth factors and serum. Test volumes of 100 μl per well were added back containing medium with 0.5% FCS and different concentrations of inhibitor compounds with 100 ng/ml Activin A, without Wnt3a. Positive control wells contained the same base medium with 0.5% FCS and with 20 ng/ml Wnt3a (R&D Biosystems) in the absence of test compound. Negative control wells contained the same base medium with 0.5% FCS, in the absence of Activin A, Wnt3a, or test compound. Assay wells were aspirated and fed again with identical concentrations of test compound or control solutions on day 2 of assay. On days 3 and 4, all assay wells were aspirated and fed with DMEM:F12 supplemented with 2% FCS and 100 ng/ml Activin A in the absence of both test compound or Wnt3a. Parallel negative control wells were maintained on days 3 and 4 in DMEM:F12 base medium with 2% FCS.
(§6) At the end of culture, cells in 96-well plates were washed twice with PBS then fixed with 4% paraformaldehyde at room temperature for 20 minutes, washed three times more with PBS, and then permeabilized with 0.5% Triton X-100 for 20 minutes at room temperature. After fixing and permeabilizing, cells were washed again three times with PBS and then blocked with 4% chicken serum (Invitrogen) in PBS for 30 minutes at room temperature. […]

[2] = test system: Sox17 expression in human embryonic stem cell line H1; experiment: Dose titration secondary assay: Sox17 intensity, H1; assay type: cell-based
Procedure: as §1, §2, §3, §4, §5, §6

In the case of CCN1CCOCCOCCn2cc(c3ccccc32)C2=C(C(=O)NC2=O)c2cn(c3ccccc23)CC1 [Compound 103, 14-Ethyl-6,7,9,10,13,14,15,16-octahydro-12H,23H-5,26:17,22-di(metheno)dibenzo[k,q]pyrrolo[3,4-n][1,4,7,10,19]dioxatriacyclohenicosine-23,25(24H)-dione], the “Sox17 Intensity” value ([1]; 0.156 μM compound) is reported as 0.364, the “Sox17 Intensity” value ([1]; 0.313 μM compound) is reported as 0.577 and the “Sox17 Intensity” value ([1]; 0.625 μM compound) is reported as 0.985. For the same molecule, the “Sox17 Intensity” value ([1]; 1.25 μM compound) was 0.943, the “Sox17 Intensity” value ([1]; 2.5 μM compound) was 0.559 and the “Sox17 Intensity” value ([1]; 5 μM compound) was 0.019. For the same molecule, the “Sox17 Intensity” value ([1]; 10 μM compound) was 0.001, the “Sox17 Intensity” value ([2]; 0.156 μM compound) was 0.986 and the “Sox17 Intensity” value ([2]; 0.313 μM compound) was 0.934. The “Sox17 Intensity” value ([2]; 0.625 μM compound) was 0.824, the “Sox17 Intensity” value ([2]; 1.25 μM compound) was 0.792 and the “Sox17 Intensity” value ([2]; 2.5 μM compound) was 0.200. The “Sox17 Intensity” value ([2]; 5 μM compound) was 0.017 and the “Sox17 Intensity” value ([2]; 10 μM compound) was 0.001.
For O=C1NC(=O)C2=C1c1cn(c3ccccc13)CCOCCOCCN(Cc1cccs1)CCn1cc2c2ccccc21 [Compound 133, 14-(2-Thienylmethyl)-6,7,9,10,13,14,15,16-octahydro-12H,23H-5,26:17,22-di(metheno)dibenzo[k,q]pyrrolo[3,4-n][1,4,7,10,19]dioxatriazacyclohenicosine-23,25(24H)-dione], the “Sox17 Intensity” value ([1]; 0.156 μM compound) was 0.149, the “Sox17 Intensity” value ([1]; 0.313 μM compound) was 0.398 and the “Sox17 Intensity” value ([1]; 0.625 μM compound) was 0.678. The “Sox17 Intensity” value ([1]; 1.25 μM compound) was 1.110, the “Sox17 Intensity” value ([1]; 2.5 μM compound) was 0.857 and the “Sox17 Intensity” value ([1]; 5 μM compound) was 0.194. For the same molecule, the “Sox17 Intensity” value ([1]; 10 μM compound) was 0.129, the “Sox17 Intensity” value ([2]; 0.156 μM compound) was 0.888 and the “Sox17 Intensity” value ([2]; 0.313 μM compound) was 0.937. The “Sox17 Intensity” value ([2]; 0.625 μM compound) was 1.061, the “Sox17 Intensity” value ([2]; 1.25 μM compound) was 0.993 and the “Sox17 Intensity” value ([2]; 2.5 μM compound) was 0.497. For the same molecule, the “Sox17 Intensity” value ([2]; 5 μM compound) was 0.071 and the “Sox17 Intensity” value ([2]; 10 μM compound) was 0.034.
With CN1CCN(C)CCn2cc(c3ccccc32)C2=C(C(=O)NC2=O)c2cn(c3ccccc23)CC1 [Compound 111, 8,11-Dimethyl-6,7,8,9,10,11,12,13-octahydro-20H-5,23:14,19-di(metheno)dibenzo[k,q]pyrrolo[3,4-n][1,4,7,10]tetraazacyclooctadecine-20,22(21H)-dione] the “Sox17 Intensity” value ([1]; 0.156 μM compound) was 0.054, the “Sox17 Intensity” value ([1]; 0.313 μM compound) was 0.080 and the “Sox17 Intensity” value ([1]; 0.625 μM compound) was 0.268. The “Sox17 Intensity” value ([1]; 1.25 μM compound) was 0.332, the “Sox17 Intensity” value ([1]; 2.5 μM compound) was 0.432 and the “Sox17 Intensity” value ([1]; 5 μM compound) was 0.543. The “Sox17 Intensity” value ([1]; 10 μM compound) was 0.822, the “Sox17 Intensity” value ([2]; 0.156 μM compound) was 0.628 and the “Sox17 Intensity” value ([2]; 0.313 μM compound) was 0.667. The “Sox17 Intensity” value ([2]; 0.625 μM compound) was 0.755, the “Sox17 Intensity” value ([2]; 1.25 μM compound) was 0.819 and the “Sox17 Intensity” value ([2]; 2.5 μM compound) was 0.887. For the same molecule, the “Sox17 Intensity” value ([2]; 5 μM compound) was 0.846 and the “Sox17 Intensity” value ([2]; 10 μM compound) was 0.330.
In the case of O=C1NC(=O)C2=C1c1cn(c3ccccc13)CCOCCOCCN(Cc1cccc3ccccc13)CCn1cc2c2ccccc21 [Compound 136, 14-(Naphthalen-1-ylmethyl)-6,7,9,10,13,14,15,16-octahydro-12H,23H-5,26:17,22-di(metheno)dibenzo[k,q]pyrrolo[3,4-n][1,4,7,10,19]dioxatriazacyclohenicosine-23,25(24H)-dione], the “Sox17 Intensity” value ([1]; 0.156 μM compound) is reported as 0.125, the “Sox17 Intensity” value ([1]; 0.313 μM compound) is reported as 0.129 and the “Sox17 Intensity” value ([1]; 0.625 μM compound) is reported as 0.212. For the same molecule, the “Sox17 Intensity” value ([1]; 1.25 μM compound) was 0.202, the “Sox17 Intensity” value ([1]; 2.5 μM compound) was 0.209 and the “Sox17 Intensity” value ([1]; 5 μM compound) was 0.154. For the same molecule, the “Sox17 Intensity” value ([1]; 10 μM compound) was 0.129, the “Sox17 Intensity” value ([2]; 0.156 μM compound) was 0.666 and the “Sox17 Intensity” value ([2]; 0.313 μM compound) was 0.859. For the same molecule, the “Sox17 Intensity” value ([2]; 0.625 μM compound) was 0.887, the “Sox17 Intensity” value ([2]; 1.25 μM compound) was 0.783 and the “Sox17 Intensity” value ([2]; 2.5 μM compound) was 0.373. The “Sox17 Intensity” value ([2]; 5 μM compound) was 0.141 and the “Sox17 Intensity” value ([2]; 10 μM compound) was 0.054.
In the case of CN1CCOCCOCCN(C)CCn2cc(c3ccccc32)C2=C(C(=O)NC2=O)c2cn(c3ccccc23)CC1 [Compound 112, 12,21-Dimethyl-11,12,13,14,16,17,20,21,22,23-decahydro-1H,10H,19H-9,4:24,29-di(metheno)dibenzo[k,q]pyrrolo[3,4-n][1,4,7,10,19,22]dioxatetraazacyclotetracosine-1,3(2H)-dione], the “Sox17 Intensity” value ([1]; 0.156 μM compound) is reported as 0.186, the “Sox17 Intensity” value ([1]; 0.313 μM compound) is reported as 0.342 and the “Sox17 Intensity” value ([1]; 0.625 μM compound) is reported as 0.563. For the same molecule, the “Sox17 Intensity” value ([1]; 1.25 μM compound) was 0.936, the “Sox17 Intensity” value ([1]; 2.5 μM compound) was 1.146 and the “Sox17 Intensity” value ([1]; 5 μM compound) was 1.127. For the same molecule, the “Sox17 Intensity” value ([1]; 10 μM compound) was 0.759, the “Sox17 Intensity” value ([2]; 0.156 μM compound) was 0.922 and the “Sox17 Intensity” value ([2]; 0.313 μM compound) was 1.006. The “Sox17 Intensity” value ([2]; 0.625 μM compound) was 1.136, the “Sox17 Intensity” value ([2]; 1.25 μM compound) was 1.159 and the “Sox17 Intensity” value ([2]; 2.5 μM compound) was 0.928. For the same molecule, the “Sox17 Intensity” value ([2]; 5 μM compound) was 0.728 and the “Sox17 Intensity” value ([2]; 10 μM compound) was 0.701.

— US20130337564A1, “Treatment of Pluripotent Cells” (Janssen Biotech, Inc., priority 2012, published 2013)
